Numbered stars: 1 amine (or outer) side, 2 acyl side, 3 side chain; on linkers, the order of the positions; unused ones are H or OH. Bridge positions count the residues as written; N and C are the ends. Square brackets hold non-standard residues; d marks the D form. Peptide text beside a SMILES is read from it. * marks the point of attachment. hPhe(3-Cl-4-CF3) = N[C@@H](CCc1ccc(C(F)(F)F)c(Cl)c1)C(=O)O; hPhe(3-F,4-CF3) = N[C@@H](CCc1ccc(C(F)(F)F)c(F)c1)C(=O)O; NEtPhe(4-CF3) = CCN[C@@H](Cc1ccc(C(F)(F)F)cc1)C(=O)O; hPhe(4-CF3) = N[C@@H](CCc1ccc(C(F)(F)F)cc1)C(=O)O; NMePhe(3,4-F2) = CN[C@@H](Cc1ccc(F)c(F)c1)C(=O)O; NMePhe(4-Cl) = CN[C@@H](Cc1ccc(Cl)cc1)C(=O)O; NMePhe(4-Me) = CN[C@@H](Cc1ccc(C)cc1)C(=O)O; NMePhe(2-Cl) = CN[C@@H](Cc1ccccc1Cl)C(=O)O; NMedβ3hAla = C[C@H](CC(=O)[*:2])N(C)[*:1]; NMeAla(cPent) = CN[C@@H](CC1CCCC1)C(=O)O; NMeGly(cPent) = CN[C@H](C(=O)O)C1CCCC1; Phe(3-I) = N[C@@H](Cc1cccc(I)c1)C(=O)O; Pro(4,4-F2) = O=C(O)[C@@H]1CC(F)(F)CN1; X74 = CC(C)(O)C=CCN(CC(=O)[*:2])[*:1]; NMeY = CN[C@@H](Cc1ccc(O)cc1)C(=O)O; NMeCha = CN[C@@H](CC1CCCCC1)C(=O)O; cisHyp = O=C(O)[C@@H]1C[C@H](O)CN1; NMeChg = CN[C@H](C(=O)O)C1CCCCC1; Gly(cBu) = N[C@H](C(=O)O)C1CCC1; N(CH2CH2)2CF2 = FC1(F)CCN(*)CC1; NMeE = CN[C@@H](CCC(=O)O)C(=O)O; NMeD = CN[C@@H](CC(=O)O)C(=O)O; NMeL = CN[C@@H](CC(C)C)C(=O)O; NMeV = CN[C@H](C(=O)O)C(C)C; d(β3hA) = C[C@@H](N)CC(=O)O; Morpholide = C1CN(*)CCO1; NMeA = CN[C@@H](C)C(=O)O; Nle = CCCC[C@H](N)C(=O)O; Piperidide = C1CCN(*)CC1; Pyrrolidide = C1CCN(*)C1; dNMeA = CN[C@H](C)C(=O)O; Ac5c = NC1(C(=O)O)CCCC1; Aze = O=C(O)[C@@H]1CCN1; Ac4c = NC1(C(=O)O)CCC1; NBuGly = CCCCNCC(=O)O; Aib = CC(C)(N)C(=O)O; Ethyl(2-OH) = OCC*; Sar = CNCC(=O)O

The test deals with protein-protein interaction between Kras and SOS1 (biotin-tagged human Kras loaded with GDP, His-tagged human SOS1) (Homo sapiens (Human), UniProt P01116, G12D). In words: Protein-protein interaction inhibition between Kras and SOS1 (KrasG12D-SOS PPI) using AlphaScreen.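 Further: kras produced in E. coli, Ni-coupled donor beads and streptavidin acceptor beads, excitation 680 nm with emission detected at 520–620 nm via singlet oxygen transfer.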 The class given is biochemical. To be noted: AlphaScreen; biotin-tagged human Kras loaded with GDP, His-tagged human SOS1; read-out: KRAS G12D-SOS PPI IC50.
For the compound `CC[C@H](C)[C@@H]1NC(=O)[C@H](CC(C)C)N(C)C(=O)C[C@@H](C(=O)N2CCCCC2)N(C)C(=O)[C@H](C2CCCCC2)N(C)C(=O)C2(CCCC2)NC(=O)[C@@H]2C[C@H](O)CN2C(=O)[C@H](CCc2ccc(C(F)(F)F)c(Cl)c2)NC(=O)CN(C)C(=O)[C@H](CC2CCCCC2)N(C)C(=O)CN(C)C(=O)CN(C)C1=O` [Compound 1374, (3S,9S,18S,21S,25S,28S,34S,36S)-3-[2-[3-chloro-4-(trifluoromethyl)phenyl]ethyl]-28-cyclohexyl-9-(cyclohexylmethyl)-36-hydroxy-21-isobutyl-7,10,13,16,22,26,29-heptamethyl-18-[(1S)-1-methylpropyl]-25-(piperidine-1-carbonyl)spiro[1,4,7,10,13,16,19,22,26,29,32-undecazabicyclo[32.3.0]heptatriacontane-31,1′-cyclopentane]-2,5,8,11,14,17,20,23,27,30,33-undecone] ([NMeL]I[Sar][Sar][NMeCha][Sar][hPhe(3-Cl-4-CF3)][cisHyp][Ac5c][NMeChg][NMeD]-Piperidide; lactam N-11), the IC50 is 0.54 nM. With `CC[C@H](C)[C@@H]1NC(=O)[C@H](CC2CCCC2)N(C)C(=O)C[C@@H](C(=O)N(C)C)N(C)C(=O)[C@H](C2CCCC2)N(C)C(=O)C2(CCCC2)NC(=O)[C@@H]2CCCN2C(=O)[C@H](CCc2ccc(C(F)(F)F)c(F)c2)NC(=O)CN(C)C(=O)[C@H](CC2CCCCC2)N(C)C(=O)[C@@H]2CCN2C(=O)[C@H](C)NC1=O` [Compound 1340] ([NMeAla(cPent)]IA[Aze][NMeCha][Sar][hPhe(3-F,4-CF3)]P[Ac5c][NMeGly(cPent)][NMeD]-NMe2; lactam N-11), the IC50 turned out to be 1.2 nM. Consider `CC(C)C[C@H]1C(=O)N[C@@H](C2CCC2)C(=O)N(C)[C@@H](C)C(=O)N2CC[C@H]2C(=O)N(C)[C@@H](CC2CCCCC2)C(=O)N(C)CC(=O)N[C@@H](CCc2ccc(C(F)(F)F)c(Cl)c2)C(=O)N2CCC[C@H]2C(=O)NC2(CCCC2)C(=O)N(C)[C@@H](C(C)C)C(=O)N(C)[C@H](C(=O)N2CCCCC2)CC(=O)N1C` [Compound 157] ([NMeL][Gly(cBu)][NMeA][Aze][NMeCha][Sar][hPhe(3-Cl-4-CF3)]P[Ac5c][NMeV][NMeD]-Piperidide; lactam N-11), for which the IC50 worked out at 7.5 nM. Under `CC[C@H](C)[C@@H]1NC(=O)[C@H](CC2CCCC2)N(C)C(=O)C[C@@H](C(=O)N2CCOCC2)N(C)C(=O)[C@H](C2CCCC2)N(C)C(=O)C2(CCCC2)NC(=O)[C@@H]2CCCN2C(=O)[C@H](CCc2ccc(C(F)(F)F)c(Cl)c2)NC(=O)CN(C)C(=O)[C@H](CC2CCCCC2)N(C)C(=O)[C@@H]2CCN2C(=O)[C@H](C)NC1=O` [Compound 1176] ([NMeAla(cPent)]IA[Aze][NMeCha][Sar][hPhe(3-Cl-4-CF3)]P[Ac5c][NMeGly(cPent)][NMeD]-Morpholide; lactam N-11) stands 0.8 nM.

Take `CCCCN1CC(=O)N(C)CC(=O)N(C)[C@@H](Cc2ccc(Cl)cc2)C(=O)N(C)CC(=O)N[C@@H](CCc2ccc(C(F)(F)F)cc2)C(=O)N(C)[C@@H](CC(C)C)C(=O)NC(C)(C)C(=O)N(C)[C@@H](CC(C)C)C(=O)N[C@H](C)CC(=O)N(C)[C@@H](C)C(=O)N[C@@H]([C@@H](C)CC)C1=O` [Compound 436] (cyclo([Aib][NMeL][d(β3hA)][NMeA]I[NBuGly][Sar][NMePhe(4-Cl)][Sar][hPhe(4-CF3)][NMeL])): the 50% inhibitory concentration (IC50) was determined as 160 nM.

For the compound `CC[C@H](C)[C@@H]1NC(=O)[C@H](CC(C)C)N(C)C(=O)C[C@@H](C(=O)N2CCCCC2)N(C)C(=O)[C@H](C2CCCCC2)N(C)C(=O)C2(CCCC2)NC(=O)[C@@H]2C[C@H](OCCO)CN2C(=O)[C@H](CCc2ccc(C(F)(F)F)c(Cl)c2)NC(=O)CN(C)C(=O)[C@H](CC2CCCCC2)N(C)C(=O)CN(C)C(=O)CN(C)C1=O` [Compound 2117, (3S,9S,18S,21S,25S,28S,34S,36S)-3-[2-[3-chloro-4-(trifluoromethyl)phenyl]ethyl]-28-cyclohexyl-9-(cyclohexylmethyl)-36-(2-hydroxyethoxy)-21-isobutyl-7,10,13,16,22,26,29-heptamethyl-18-[(1S)-1-methylpropyl]-25-(piperidine-1-carbonyl)spiro[1,4,7,10,13,16,19,22,26,29,32-undecazabicyclo[32.3.0]heptatriacontane-31,1′-cyclopentane]-2,5,8,11,14,17,20,23,27,30,33-undecone] ([NMeL]I[Sar][Sar][NMeCha][Sar][hPhe(3-Cl-4-CF3)][cisHyp](Ethyl(2-OH))[Ac5c][NMeChg][NMeD]-Piperidide; lactam N-11), the IC50 is 0.41 nM. Under `CC[C@H](C)[C@@H]1NC(=O)[C@H](C)N(C)C(=O)C[C@@H](C(=O)N2CCCCC2)N(C)C(=O)[C@H](C(C)C)N(C)C(=O)C2(CCCC2)NC(=O)[C@H](Cc2ccccc2Cl)N(C)C(=O)[C@H](CCc2ccc(C(F)(F)F)c(Cl)c2)NC(=O)CN(C)C(=O)[C@H](Cc2ccc(C)cc2)N(C)C(=O)CN(C)C(=O)CN(C)C1=O` [Compound 2007] ([NMeA]I[Sar][Sar][NMePhe(4-Me)][Sar][hPhe(3-Cl-4-CF3)][NMePhe(2-Cl)][Ac5c][NMeV][NMeD]-Piperidide; lactam N-11) stands 230 nM.

Regarding `CC[C@H](C)[C@@H]1NC(=O)[C@H](CC(C)C)N(C)C(=O)C[C@@H](C(=O)N(C)C)N(C)C(=O)[C@H](C2CCCC2)N(C)C(=O)C2(CCCC2)NC(=O)[C@@H]2CCCN2C(=O)[C@H](CCc2ccc(C(F)(F)F)c(F)c2)NC(=O)CN(C)C(=O)[C@H](CC2CCCCC2)N(C)C(=O)[C@@H]2CCN2C(=O)[C@H](C)NC1=O` [Compound 1164] ([NMeL]IA[Aze][NMeCha][Sar][hPhe(3-F,4-CF3)]P[Ac5c][NMeGly(cPent)][NMeD]-NMe2; lactam N-11), the IC50 turned out to be 1.4 nM. The result for `CC[C@H](C)[C@@H]1NC(=O)[C@H](CC(C)C)N(C)C(=O)C[C@@H](C(=O)N2CCCCC2)N(C)C(=O)[C@H](C(C)C)N(C)C(=O)[C@H](C(C)C)NC(=O)[C@H](CC(=O)N2CCC(F)(F)CC2)N(C)C(=O)[C@H](CCc2ccc(C(F)(F)F)c(Cl)c2)NC(=O)CN(C)C(=O)[C@H](CC2CCCCC2)N(C)C(=O)CN(C)C(=O)CN(C)C1=O` [Compound 1078] ([NMeL]I[Sar][Sar][NMeCha][Sar][hPhe(3-Cl-4-CF3)][NMeD](N(CH2CH2)2CF2)V[NMeV][NMeD]-Piperidide; lactam N-11) reads 190 nM; that for `CCCC[C@@H]1NC(=O)[C@H](Cc2cccc(I)c2)NC(=O)CN(C)C(=O)[C@H](Cc2ccc(OC)cc2)N(C)C(=O)[C@@H]2CCN2C(=O)[C@H](C)N(C)C(=O)[C@H]([C@@H](C)CC)NC(=O)[C@H](CC(C)C)N(C)C(=O)C[C@@H](C(=O)N2CCCCC2)N(C)C(=O)[C@H](CC(C)C)NC(=O)[C@H](CCC(=O)N(C)C)N(C)C1=O` [Compound 2110, 3-[(3S,6S,9S,13S,16S,19S,22S,25S,31S,34S)-22-butyl-25-[(3-iodophenyl)methyl]-9,16-diisobutyl-31-[(4-methoxyphenyl)methyl]-3,4,10,14,20,29,32-heptamethyl-6-[(1S)-1-methylpropyl]-2,5,8,11,15,18,21,24,27,30,33-undecaoxo-13-(piperidine-1-carbonyl)-1,4,7,10,14,17,20,23,26,29,32-undecazabicyclo[32.2.0]hexatriacontan-19-yl]-N,N-dimethyl-propanamide] ([NMeL]I[NMeA][Aze][NMeY](Me)[Sar][Phe(3-I)][Nle][NMeE](NMe2)L[NMeD]-Piperidide; lactam N-11), 9.8 nM. For `CC[C@H](C)[C@@H]1NC(=O)[C@H](CC(C)C)N(C)C(=O)C[C@@H](C)N(C)C(=O)[C@H](C2CCCC2)N(C)C(=O)C2(CCC2)NC(=O)[C@@H]2CC(F)(F)CN2C(=O)[C@H](CCc2ccc(C(F)(F)F)c(Cl)c2)NC(=O)CN(C)C(=O)[C@H](Cc2ccc(C(F)(F)F)cc2)N(CC)C(=O)[C@@H]2CCN2C(=O)[C@H](C)N(C)C1=O` [Compound 949] (cyclo([Ac4c][NMeGly(cPent)][NMedβ3hAla][NMeL]I[NMeA][Aze][NEtPhe(4-CF3)][Sar][hPhe(3-Cl-4-CF3)][Pro(4,4-F2)])), the IC50 amounted to 1.3 nM. The result for `CC[C@H](C)[C@@H]1NC(=O)[C@H](CC(C)C)N(C)C(=O)C[C@@H](C(=O)N2CCCCC2)N(C)C(=O)[C@H](C2CCCCC2)N(C)C(=O)C2(CCCC2)NC(=O)CN(CC=CC(C)(C)O)C(=O)[C@H](CCc2ccc(C(F)(F)F)c(Cl)c2)NC(=O)CN(C)C(=O)[C@H](CC2CCCCC2)N(C)C(=O)CN(C)C(=O)CN(C)C1=O` [Compound 2047, (11S,17S,26S,29S,33S,36S)-11-[2-[3-chloro-4-(trifluoromethyl)phenyl]ethyl]-36-cyclohexyl-17-(cyclohexylmethyl)-9-(4-hydroxy-4-methyl-pent-2-enyl)-29-isobutyl-15,18,21,24,30,34,37-heptamethyl-26[(1S)-1-methylpropyl]-33-(piperidine-1-carbonyl)-6,9,12,15,18,21,24,27,30,34,37-undecazaspiro[4.33]octatriacontane-7,10,13,16,19,22,25,28,31,35,38-undecone] ([NMeL]I[Sar][Sar][NMeCha][Sar][hPhe(3-Cl-4-CF3)][X74][Ac5c][NMeChg][NMeD]-Piperidide; lactam N-11) reads 5.7 nM; that for `CC[C@H](C)[C@@H]1NC(=O)[C@H](CC(C)C)N(C)C(=O)C[C@@H](C(=O)N2CCOCC2)N(C)C(=O)[C@H](C2CCCC2)N(C)C(=O)C2(CCCC2)NC(=O)[C@H](CCC(=O)N2CCCC2)N(C)C(=O)[C@H](CCc2ccc(C(F)(F)F)c(Cl)c2)NC(=O)CN(C)C(=O)[C@H](CC2CCCCC2)N(C)C(=O)[C@@H]2CCN2C(=O)[C@H](C)N(C)C1=O` [Compound 2104] ([NMeL]I[NMeA][Aze][NMeCha][Sar][hPhe(3-Cl-4-CF3)][NMeE](Pyrrolidide)[Ac5c][NMeGly(cPent)][NMeD]-Morpholide; lactam N-11), 10 nM.

Regarding `CC[C@H](C)[C@@H]1NC(=O)[C@H](C)N(C)C(=O)C[C@@H](C)NC(=O)[C@H](C2CCCC2)N(C)C(=O)C2(CCCC2)NC(=O)[C@@H]2CCCN2C(=O)[C@H](CCc2ccc(C(F)(F)F)c(Cl)c2)NC(=O)[C@@H](C)N(C)C(=O)[C@H](Cc2ccc(F)c(F)c2)N(C)C(=O)[C@@H]2CCN2C(=O)[C@H](C)N(C)C1=O` [Compound 310] (cyclo([Ac5c][NMeGly(cPent)][d(β3hA)][NMeA]I[NMeA][Aze][NMePhe(3,4-F2)][dNMeA][hPhe(3-Cl-4-CF3)]P)), the IC50 turned out to be 96 nM.

Values taken from patent publication US20240148821A1, “PHARMACEUTICAL USE OF CYCLIC PEPTIDE COMPOUND” (CHUGAI SEIYAKU KABUSHIKI KAISHA, priority 2021, published 2024).
